Tested on: EG7 cells

In the case of `CC[C@H](C)[C@H](NC(=O)[C@@H](NC(=O)[C@@H](N)CO)[C@@H](C)CC)C(=O)N[C@@H](CC(N)=O)C(=O)N[C@@H](Cc1ccccc1)C(=O)N[C@@H](CCC(=O)O)C(=O)N[C@@H](CCCCN)C(=O)N[C@@H](CC(C)C)C(=O)O` [OVA-I peptide], the “cytotoxic activity of splenocytes against EG7” value is reported as “only low cytotoxic activity was induced”.

— patent US9045556B2, “Therapeutic agent for cancer” (NEC Corporation, priority 2007, dated 2015)
